Laboratory results: a melting point compilation (Tetko et al.; mined from patent text by program, amines drawn as free bases though some values may be those of a salt)

melting point [°C]	SMILES
157 to 159	CCN1C(=O)C(C)(C)C(=O)N(C)c2cc(CN(CCn3ccc4oc(C)cc4c3=O)Cc3ccccc3C#N)ccc21
93 to 94	CCC(O)(c1ccccc1)c1ccccc1
253	Nc1ccc(-c2noc(-c3cnn4c(C(F)(F)F)cc(-c5ccc(Cl)cc5)nc34)n2)cn1
132 to 133	CC(C)(C)c1cc(C(=O)c2cccs2)cc(CN2CCCCC2)c1O
92 to 94	O=c1c(Cl)c(Cl)cnn1-c1cccc(COc2ccccc2)c1
> 250	CC12CCC3c4ccc(O)c([N+](=O)[O-])c4CCC3C1CCC2=O (stereo unspecified)
181 to 183	O=C(Cc1ccc(Oc2ccccc2)cc1)NNC(=O)c1ccc(O)cc1
167 to 168	CCOC(=O)c1coc2cc(NS(C)(=O)=O)c(Oc3ccccc3)cc2c1=O
103 to 104	CC(=O)OCC1OC(n2c(Cl)c(C#N)c3cc(Cl)c(Cl)cc32)C(O)C1O (stereo unspecified)
> 268	COCOc1ccc(-c2ncc3ccc(-c4csc(CN5CCOCC5)c4)nc3n2)cc1
88 to 89	COC(=O)CCc1ccc(OCCC2Oc3ccccc3N(Cc3cccc(Cl)c3)C2=O)cc1 (stereo unspecified)
213 to 217	Cc1nc(-c2ccc(OCC(C)C)c(C=O)c2)sc1C(=O)O
224 to 225	O=S1(=O)N=C(NCc2ccco2)Nc2cc(Cl)sc21
140	Cc1ccc(C(N)(c2ccc3c(c2)C(c2cccc(Cl)c2)Nc2nnnn2-3)c2cncn2C)cc1 (stereo unspecified)
111 to 113	COCCn1nc(-c2cc(C(C)(C)C)c(O)c(C(C)(C)C)c2)c2cccnc21
141	CC(C)(C)c1ccc(/C=C/C(=O)Nc2ccccc2)cc1
100	CN(C)C(=S)C1(c2ccccn2)CCCS1 (stereo unspecified)
135 to 136	O=C(CC(O)(c1cc(Cl)cc(Cl)c1)C(F)(F)F)c1ccc(-n2cncn2)nc1 (stereo unspecified)
224 to 225	Nc1nc(-c2cc(Cl)ccc2Cl)nc(N2CCN(c3ncccn3)CC2)n1
210 to 213	Cc1c(C(=O)Nc2ccc(N3CCC(N(C)C)CC3)c(C#N)c2)cnn1-c1ccc(Cl)cc1
268 to 270	CCc1nc(NC(=O)C2=C(O)c3ccc4ccccc4c3S(=O)(=O)N2)sc1C
79 to 81	CCCCOC(=O)Cc1nc(-c2ccc(Cl)cc2)oc1-c1ccsc1
97 to 98	O=Cc1cn(Cc2ccc(OCc3ccccc3)cc2)nc1-c1ccc(F)cc1
110 to 112	CC(=O)Oc1cnccc1CCCOc1cccnc1Oc1cccc(Br)c1

melting point [°C]	SMILES
185 to 187	Cc1nc2ccccc2n(-c2ccc(Cl)cc2)c1=O
194	O=C1Nc2ccc(I)cc2C1=NNC(=O)c1ccc(O[C@@H](Cc2ccccc2)C(=O)OCc2ccccc2)cc1
226 to 229	Cc1c(-c2ccccc2)oc2c(C=CC(=O)O)cccc2c1=O
132 to 133	Cc1ccc2c(c1)nnn2C(=O)N(c1ccccc1)c1ccccc1
197	CN1CCC(C(=O)Nc2cccc3nc(NC4CCc5ccccc54)ccc23)CC1 (stereo unspecified)
89 to 92.5	COC(=O)Nc1nc(C)cc(OC)n1
163 to 165	CCCCc1c(C(=O)O)c2ccccc2n1C
170 to 183	C#CCNC(=O)NC1CCC(=O)c2sccc21 (stereo unspecified)
41 to 44	O=[N+]([O-])c1cc(Cl)c(Cl)c(Cl)c1Cl
239 to 240	ON=Cc1c(Br)ccc2c1OCO2
> 220	NC(=O)Nc1cc(Oc2ncccc2C(F)(F)F)c(Cl)cc1F
144 to 145	COc1cc(Oc2ccc(S(C)(=O)=O)cc2)cc2cc(C3=NCC(CC(=O)O)S3)[nH]c12 (stereo unspecified)
66 to 68	C[C@@H]1O[C@@]1(Cn1cncn1)c1ccc(F)cc1F (racemic)
186	CN(C)C=Nc1sc(C=O)c(Cl)c1C#N
104 to 106	O=C1c2cc(Br)ccc2COc2ccccc21
91 to 92	CCOCC1Cc2cc(S(=O)(=O)N(C)C)c(Cl)c(Cl)c2O1 (stereo unspecified)
206 to 208	CN(C)S(=O)(=O)n1c(N)nc2ccc(C(N)=O)cc21
174 to 175	O=C1Nc2cc([N+](=O)[O-])ccc2OC1CCO (stereo unspecified)
182 to 183	COC(=O)c1cc(CCCc2cc3c(=O)[nH]c(N)nc3[nH]2)cs1
149 to 150	COc1cc(C#N)cc2cc(CO)oc12
92 to 93	COC(=O)C(C)(C)c1cn2nc(Cl)ccc2n1
158	Cc1ccc(N)cc1Nc1ncc(-c2ccncc2)o1
150 to 152	CCCOCCc1ccc(-c2ccc3c(c2)C=C(C(=O)Nc2ccc(CN(C)C4CCOCC4)cc2)CCS3(=O)=O)c(Cl)c1
174 to 175	CC1(CO)COC(Cn2ccnc2)(c2ccc(Cl)cc2Cl)OC1 (stereo unspecified)

melting point [°C]	SMILES
260 to 262	COc1cc(C(=O)O)cc2c1C(=O)c1c(OC)ccc(OC)c1C2=O
157 to 158	CCOCc1nc2cnc3ccccc3c2n1CCCCC(N)=O
45 to 47	CC(CN1C(=O)C2(COc3cc4c(cc32)CCO4)c2ccccc21)OCc1ccccc1 (stereo unspecified)
93 to 95	Cc1cc(C)n(CC(C)C)c(=O)c1C(=O)O
80 to 81	CC(C)(C)[Si](C)(C)Oc1cccc2[nH]ccc12
171 to 173	CCc1nc(-c2ccccc2)c(NC(=O)Nc2ccccc2)s1
95	C#CCOc1ccc(C=O)cc1OC
163 to 165	CCCCc1nc2ccc(N(C)C(=O)NC)cc2n1Cc1ccc(-c2ccccc2C(=O)O)cc1
84 to 86	COc1ccc2[nH]c(SCc3ncc(F)c(N4CCOCC4)c3C)nc2c1
162 to 164	C#CCn1c(-c2ccc(OC)cc2)c([N+](=O)[O-])c2ccc(OC)cc2c1=O
258 to 261	CC(=O)Nc1cc2c(cc1[N+](=O)[O-])OC(C)(C)[C@@H](O)[C@@H]2N (relative stereo)
170 to 172	CC(CC(=O)O)C(=O)c1ccc2c(c1)OCC(=O)N2 (stereo unspecified)
210 to 212	COc1cc(C=C2SC(=O)NC2=O)ccc1OCCN1c2ccccc2Sc2ccccc21
120 to 121	CC(=NOCC=Cc1ccccc1)C(=O)Cl
175 to 176	CCCc1c(OCCOc2ccc(C(=O)O)cc2)ccc(C(C)=O)c1O
243 to 244	Cc1cc(Nc2cncc(Nc3cccc(NC(=O)c4ccccc4)c3)n2)n[nH]1
88 to 89	COc1ccc(CCCC(=O)CCC(=O)O)cc1
188 to 190	CC(=O)NC[C@H]1CN(c2ccc(C3=CCCN(C(=O)CO)C3)c(F)c2)C(=O)O1
195 to 197	CC(C)(C)c1nc2cc(N3CCN(S(C)(=O)=O)CC3)c([N+](=O)[O-])cc2s1
58 to 60	CCCCCCOc1c(CBr)ccc2c(OCCCCCC)c(CBr)ccc12
94.5 to 95.2	CCCCCCCCCc1ccc(S(N)(=O)=O)cc1
124 to 125	CCOC(=O)c1scc2c1ccc1cn[nH]c12
177 to 178	O=C(NC[C@H]1CN(c2ccc(N3CCS(=O)(=O)CC3)c(F)c2)C(=O)O1)C(F)F
160 to 162	COc1cc(OC)c(NC(=O)[C@H]2[C@H](c3ccccc3)C2(C)C)cc1Cl (relative stereo)

melting point [°C]	SMILES
105 to 110	O=C(c1cc(N2CCOCC2)ccn1)N(O)Cc1ccccc1
183 to 185	CC1=CC(c2cccc([N+](=O)[O-])c2)C2=C(CCCC2=O)N1 (stereo unspecified)
155	Nc1nc2ccc(SC(F)(F)F)cc2s1
251 to 252	Cn1ncc(/C=C/C(=O)Nc2ccc(CS(C)(=O)=O)cc2)c1-c1ccc(F)cc1
67.5 to 69	CC(C)(C)c1cc(CCCO)cc(C(C)(C)C)c1O
> 250	O=C(O)C1=Cc2c(ccc3occ(-c4ccc(Br)cc4)c23)OC1C(F)(F)F (stereo unspecified)
107 to 113	COC(=O)C1=C(C)NC(C)=C(C(=O)NCCOC(=O)N2CCC3(CC2)CC(=O)N(OC)C3=O)C1c1cccc([N+](=O)[O-])c1 (stereo unspecified)
191 to 193	Cc1ccc2c(c1)Oc1ncc(N)cc1C(=O)N2C
108 to 110	CC[C@@]12C[C@@](C)(O)[C@](O)(c3ccccc3)C[C@H]1CCc1cc(OCc3nnn[nH]3)ccc12
69 to 71	CCOC(Oc1cc(Cl)cc(Cl)c1)C(=O)NC(C)(C)C (stereo unspecified)
188 to 192	COC(=O)c1ccc(-c2ccc(Br)c3nsnc23)cc1
275 to 276	O=C(C=Cc1ccccn1)Nc1nnn[nH]1
151 to 153	Cc1cc(C(N)=O)c(NC(=O)CCC(F)(F)F)s1
44.5 to 45	COC(=O)CCCc1nc(-c2ccc(C)cc2)oc1C(F)(F)F
136 to 137	CC(C)(C)OC(=O)N1CC[C@H](c2ccc(OCC3OCCO3)cc2)[C@@H](O)C1 (racemic)
66 to 67	CC(C)CCSC1C(O)C(CO)OC1n1ccc(=O)[nH]c1=O (stereo unspecified)
192 to 195	COc1ccccc1Oc1c(O)nc(-c2cccc(OCc3ccccc3)c2)nc1O
49 to 50	CCOC(=O)c1cc(Cl)c(OCCCc2cc(C)no2)c(Cl)c1
120	O=C1NCc2ccccc2N1C1CCN(Cc2ccccc2)CC1
113 to 114	COc1ccc(C(=O)C=Cc2cccnc2)cc1
156 to 158	Clc1ccc2c(c1)C(c1ccccc1)=Nc1cccnc1N2
172 to 176	COc1cc2c(cc1F)CCN=C2C1(c2ccccc2Cl)CC1
150 to 151	CC1CC(c2cccc(Cl)c2)=NNC1=O (stereo unspecified)

SMILES	melting point [°C]
Cc1cc(C)c2nc(N(CC(C)N3CCOCC3)C3CCNCC3)n(Cc3nc(C)ccc3O)c2c1 (stereo unspecified)	223
CCOC(=O)CN1C(=O)C(NC(=O)Nc2ccc(Cl)cc2)N=C(c2ccccc2F)c2ccccc21 (stereo unspecified)	253 to 254
COc1ccc(CN2CCC(c3cn(Cc4ccco4)c4ccccc34)CC2)cc1C(=O)O	237 to 238
O=C(CBr)CS(=O)(=O)C(c1ccc(Cl)cc1)c1ccc(Cl)cc1	122 to 123
O=C(N[C@@H]1CN2CCC1CC2)c1cccc2c1cc1n2CCCC1	163 to 164
CN1CCCN=C1C(Cl)(Cl)[N+](=O)[O-]	92 to 93
